Molecules are shown by their SMILES.

Here are results for 25 compounds from patent US20250304576A1 (Cancer Research Technology Limited, priority 2022, published 2025).

This experiment has as its target T1, CHUK (IKK alpha) (Homo sapiens, UniProt O15111).
T1 construct: purchased Life Technologies (assay performed by the vendor)
T1 sequence (O15111 1-745): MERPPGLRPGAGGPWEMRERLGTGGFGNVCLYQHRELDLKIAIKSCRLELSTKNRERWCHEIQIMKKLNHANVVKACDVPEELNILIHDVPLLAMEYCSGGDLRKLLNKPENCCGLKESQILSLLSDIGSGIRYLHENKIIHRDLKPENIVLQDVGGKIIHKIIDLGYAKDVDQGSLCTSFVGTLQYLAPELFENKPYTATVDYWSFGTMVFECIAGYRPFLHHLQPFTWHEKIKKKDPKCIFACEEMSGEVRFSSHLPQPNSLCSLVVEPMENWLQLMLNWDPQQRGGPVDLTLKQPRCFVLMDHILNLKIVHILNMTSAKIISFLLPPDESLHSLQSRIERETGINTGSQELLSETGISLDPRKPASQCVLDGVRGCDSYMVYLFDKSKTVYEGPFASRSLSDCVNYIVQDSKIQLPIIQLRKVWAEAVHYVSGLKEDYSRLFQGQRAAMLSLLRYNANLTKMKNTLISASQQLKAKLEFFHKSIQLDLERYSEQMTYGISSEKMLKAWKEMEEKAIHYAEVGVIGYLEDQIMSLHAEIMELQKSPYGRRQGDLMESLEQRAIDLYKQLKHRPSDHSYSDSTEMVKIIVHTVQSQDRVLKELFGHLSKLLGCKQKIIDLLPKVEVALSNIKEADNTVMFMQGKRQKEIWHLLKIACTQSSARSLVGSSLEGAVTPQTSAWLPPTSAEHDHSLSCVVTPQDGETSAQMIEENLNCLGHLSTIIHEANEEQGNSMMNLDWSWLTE
Briefly: Adapta IKKα assay (TR-FRET ADP formation, Life Technologies). Format: biochemical. The conditions noted are these: Adapta assay (second line of an example). On the procedure: IKKα and IKKβ inhibitory activity was determined using three different assays: a dissociation enhanced ligand fluorescent immunoassay (DELFIA) based on the protocol of HTScan™ IKKβ Kinase Assay (Cell Signaling Technology, USA); an Adapta IKKα assay (performed by Life Technologies); a Z′-LYTE™ IKKβ assay (performed by Life Technologies).
The reaction was performed in low-volume white 384-well plates (Corning model 4512).
The test compounds were screened in 1% DMSO (final) in the well. For 10 point titrations, 3-fold serial dilutions were conducted from the starting concentration of 50 mM.
The 2× CHUK (IKK alpha) kinase was prepared in 50 mM HEPES pH 7.5, 0.01% BRIJ-35, 10 mM MgCl2 and 1 mM EGTA. The final 10 μL kinase mixture consisted of 50-250 ng CHUK (IKK alpha) in 32.5 mM HEPES pH 7.5, 0.005% BRIJ-35, 5 mM MgCl2 and 0.5 mM EGTA. No substrate was required, as the assay measures the ability of a compound to inhibit the kinase's intrinsic ATPase activity.
5 μL of 2× Kinase mixture was incubated with 2.5 μL of ATP solution diluted to a 4×working concentration in water, in the presence of 100 nL of 100× test compound in 100% DMSO and 2.4 μL of 30 mM HEPES buffer.
After 30-second plate shake and 1-minute centrifuge at 1000×g, the resulting kinase reaction was allowed to incubate for 1 hour at room temperature before 5 μL of Detection Mix was added.
The Detection Mix, previously prepared in TR-FRET Dilution Buffer, consisted of EDTA (30 mM), Eu-anti-ADP antibody (6 nM) and an Alexa Fluor™ 647 labelled ADP tracer. The Detection Mix contained the EC60 concentration of tracer for 5-150 μM ATP.
After 30-second plate shake and 1-minute centrifuge at 1000×g, the Detection Mix was allowed to equilibrate at room temperature for 1 hour. Then the plate was read using a fluorescence plate reader configured for Adapta™ TR-FRET and the data analysed.
ADP formation was determined by calculating the emission ratio from the assay well. Therefore, the emission ratio was calculated by dividing the intensity of the tracer (acceptor) emission by the intensity of the Eu (donor) emission at 615 nm as shown in the equation below.
The IKKα and IKKb figures quoted in italicised form are from the Adapta assay described above.
A general note: In TR-FRET formats the signal depends on donor and acceptor labels being close together.
In the case of `Nc1n[nH]c2ccc(-c3ccnc4[nH]c(CCC5CCCCC5)cc34)cc12` [Example 222, 5-(2-(2-Cyclohexylethyl)-1H-pyrrolo[2,3-b]pyridin-4-yl)-1H-indazol-3-amine], 26 nM corresponded to half-maximal inhibition (IC50).

`Nc1n[nH]c2ccc(-c3ccnc4[nH]c(CO)cc34)cc12` [Example 224] displayed a concentration for half-maximal inhibition (IC50) of 1 nM.

As for `CC(C)(C)OCc1cc2c(-c3ccc4[nH]nc(N)c4c3)ccnc2[nH]1` [Example 227, 5-(2-(tert-Butoxymethyl)-1H-pyrrolo[2,3-b]pyridin-4-yl)-1H-indazol-3-amine], the IC50 was 2 nM.

Take `Nc1n[nH]c2ccc(-c3ccnc4[nH]c(C5CCOCC5)cc34)cc12` [Example 228, 5-(2-(tetrahydro-2H-pyran-4-yl)-1H-pyrrolo[2,3-b]pyridin-4-yl)-1H-indazol-3-amine]: inhibition was half-maximal at 1 nM (IC50). This IC50 lies about 2-fold lower than the previous one.

Consider `Nc1n[nH]c2ccc(-c3ccnc4[nH]c(C5CCCCO5)cc34)cc12` (stereo not shown) [Example 229, 5-(2-(Tetrahydro-2H-pyran-2-yl)-1H-pyrrolo[2,3-b]pyridin-4-yl)-1H-indazol-3-amine], for which the 50% inhibitory concentration (IC50) came to 1 nM. This lies in the single-digit nanomolar range.

The compound `Nc1n[nH]c2ccc(-c3ccnc4[nH]c(CC5CCOCC5)cc34)cc12` [Example 230, 5-(2-((tetrahydro-2H-pyran-4-yl)methyl)-1H-pyrrolo[2,3-b]pyridin-4-yl)-1H-indazol-3-amine] yielded a half-maximal inhibitory concentration (IC50) of 1 nM. This lies in the single-digit nanomolar range.

In the case of `Nc1n[nH]c2ccc(-c3ccnc4[nH]c(C(=O)N5CCCC5)cc34)cc12` [Example 234, (4-(3-Amino-1H-indazol-5-yl)-1H-pyrrolo[2,3-b]pyridin-2-yl)(pyrrolidin-1-yl)methanone], the IC50 was 32 nM. This IC50 is about 32-fold higher than that of the compound before.

For the compound `Nc1n[nH]c2ccc(-c3ccnc4[nH]c(C(=O)NC5CCCCC5)cc34)cc12` [Example 236, 4-(3-Amino-1H-indazol-5-yl)-N-cyclohexyl-1H-pyrrolo[2,3-b]pyridine-2-carboxamide], the IC50 turned out to be 2 nM.

Consider `CN1CCN(C(=O)c2cc3c(-c4ccc5[nH]nc(N)c5c4)ccnc3[nH]2)CC1` [Example 243, (4-(3-Amino-1H-indazol-5-yl)-1H-pyrrolo[2,3-b]pyridin-2-yl)(4-methylpiperazin-1-yl)methanone], for which the IC50 worked out at 13 nM. Compared with the last compound, the IC50 is about 6.5-fold higher.

Take `CC(C)(C)NCc1cc2c(-c3ccc4[nH]nc(N)c4c3)ccnc2[nH]1` [Example 248, 5-(2-((tert-Butylamino)methyl)-1H-pyrrolo[2,3-b]pyridine-4-yl)-1H-indazol-3-amine]: the IC50 was found to be 34 nM.

On to `Nc1n[nH]c2ccc(-c3ccnc4[nH]c(C5CCCCN5)cc34)cc12` (stereo not shown) [Example 250, 5-(2-(Piperidin-2-yl)-1H-pyrrolo[2,3-b]pyridine-4-yl)-1H-indazol-3-amine], for which half-maximal inhibition (IC50) required 41 nM.

For the compound `Nc1n[nH]c2ccc(-c3ccnc4[nH]c(CNC5CCCCC5)cc34)cc12` [Example 251, 5-(2-((cyclohexylamino)methyl)-1H-pyrrolo[2,3-b]339yridine-4-yl)-1H-indazol-3-amine], the midpoint of inhibition, the IC50, lay at 6 nM.

With `CN(C)CCCNCc1cc2c(-c3ccc4[nH]nc(N)c4c3)ccnc2[nH]1` [Example 258, N^1-((4-(3-amino-1H-indazol-5-yl)-1H-pyrrolo[2,3-b]pyridin-2-yl)methyl)-N^3,N^3-dimethylpropane-1,3-diamine], the concentration for half-maximal inhibition (IC50) was 10 nM.

For `CC(C)N(C)Cc1cc2c(-c3ccc4[nH]nc(N)c4c3)ccnc2[nH]1` [Example 259, 5-(2-((Isopropyl(methyl)amino)methyl)-1H-pyrrolo[2,3-b]pyridine-4-yl)-1H-indazol-3-amine], half-maximal inhibition (IC50) required 32 nM.

The compound `Nc1n[nH]c2ccc(-c3ccnc4[nH]c(CN5CCCCC5)cc34)cc12` [Example 260, 5-(2-(Piperidin-1-ylmethyl)-1H-pyrrolo[2,3-b]pyridine-4-yl)-1H-indazol-3-amine] had an IC50 of 27 nM. This IC50 and that of the compound before are within 1.5-fold of each other.

Compound `Nc1n[nH]c2ccc(-c3ccnc4[nH]c(CN5CCC(F)(F)CC5)cc34)cc12` [Example 261, 5-(2-((4,4-Difluoropiperidin-1-yl)methyl)-1H-pyrrolo[2,3-b]pyridine-4-yl)-1H-indazol-3-amine] came in with a 50% inhibitory concentration (IC50) of 11 nM.

With `Nc1n[nH]c2ccc(-c3ccnc4[nH]c(CN5CCOCC5)cc34)cc12` [Example 262, 5-(2-(Morpholinomethyl)-1H-pyrrolo[2,3-b]pyridine-4-yl)-1H-indazol-3-amine], it took 2 nM to reach half-maximal inhibition (IC50).

The compound `CN1CCN(Cc2cc3c(-c4ccc5[nH]nc(N)c5c4)ccnc3[nH]2)CC1` [Example 263, 5-(2-((4-Methylpiperazin-1-yl)methyl)-1H-pyrrolo[2,3-b]pyridine-4-yl)-1H-indazol-3-amine] came in with an IC50 of 14 nM.

`Nc1n[nH]c2ccc(-c3ccnc4[nH]c(CN5CCCCCC5)cc34)cc12` [Example 265, 5-(2-(Azepan-1-ylmethyl)-1H-pyrrolo[2,3-b]pyridine-4-yl)-1H-indazol-3-amine]: the IC50 was found to be 13 nM.

Regarding `CN1CCCN(Cc2cc3c(-c4ccc5[nH]nc(N)c5c4)ccnc3[nH]2)CC1` [Example 266, 5-(2-((4-Methyl-1,4-diazepan-1-yl)methyl)-1H-pyrrolo[2,3-b]pyridin-4-yl)-1H-indazol-3-amine], it took 11 nM to reach half-maximal inhibition (IC50). This IC50 and that of the compound before are within 1.5-fold of each other.

`Nc1n[nH]c2ccc(-c3ccnc4[nH]c(CCN5CCCCC5)cc34)cc12` [Example 267, 5-(2-(2-(Piperidin-1-yl)ethyl)-1H-pyrrolo[2,3-b]pyridine-4-yl)-1H-indazol-3-amine] came in with an IC50 of 8 nM. The IC50 values of the last two compounds are within 1.5-fold of each other.

`Nc1n[nH]c2ccc(-c3ccnc4[nH]c(CCN5CCOCC5)cc34)cc12` [Example 268, 5-(2-(2-Morpholinoethyl)-1H-pyrrolo[2,3-b]pyridin-4-yl)-1H-indazol-3-amine]: the 50% inhibitory concentration (IC50) is 1 nM.

In turn, `Nc1n[nH]c2ccc(-c3ccnc4[nH]c(CCCN5CCCCC5)cc34)cc12` [Example 269, 5-(2-(3-(Piperidin-1-yl)propyl)-1H-pyrrolo[2,3-b]pyridin-4-yl)-1H-indazol-3-amine] had a concentration for half-maximal inhibition (IC50) of 4 nM.

Turning to `Nc1n[nH]c2ccc(-c3ccnc4[nH]c(CCCN5CCOCC5)cc34)cc12` [Example 271, 5-(2-(3-Morpholinopropyl)-1H-pyrrolo[2,3-b]pyridin-4-yl)-1H-indazlo-3-amine], the concentration for half-maximal inhibition (IC50) came to 1 nM.

For the compound `Nc1n[nH]c2ccc(-c3ccnc4[nH]c(CC5CCNCC5)cc34)cc12` [Example 272, 5-(2-(Piperidin-4-ylmethyl)-1H-pyrrolo[2,3-b]pyridin-4-yl)-1H-indazol-3-amine], the IC50 stood at 1 nM.

The IC50 is the concentration at which inhibition is half-maximal. Higher therefore signals weaker potency in that assay.
